# Values joined by “and” are separate entries in the source; they are usually repeats but may differ in a detail not shown here. Equal entries are not always repeated.
# What was measured:
# [1] = Viscosity (rheometer); format: physicochemical; conditions: for Viscosity in Pa · s: 293 K; for Viscosity: TA Instrument Discovery HR-2, temperature not stated
# Description: Table 3. The viscosity was measured with Discovery Hybrid Rheometer 2.
# [2] = Ionic liquid concentration / solubility in NaCl solution or brine; format: physicochemical
# Description: Additional experiments were performed to measure IL concentration in the brine with different salinities. In these experiments, the brine (MX, FIG. 1) salinity is 4% or higher depending on the initial mixing ratio of the saline water and IL.
# [3] = Solubility of ionic liquid in water (LC-MS of [Tf2N]-); conditions: for Solubility in H2O (ppm): IL in water / residual in recovered water; for Solubility in H2O: Table 7 / Example 2
# Description: Samples with different IL/water ratios are mixed in beaker with stirring speed of 300 rpm for 10 hours, and then a 3-hour sitting period was allowed to guarantee thermodynamic equilibrium of dissolution. Because the ILs tested have higher density than water, the solution in the top layer was extracted as the sample. […] The intensity of a certain ion acquired by the mass spectrometer proportionally reflected the concentration of this kind of ion in the water solution.
# [4] = DSE desalination cycle, high-salinity / saturated / hypersaline NaCl feed
# Description: (§1) The mixture was maintained at that temperature for ˜10 minutes for phase separation, expecting the brine to separate from the IL. The IL phase, which contained pure water dissolved within it, was collected, and cooled down to room temperature, precipitating out the fresh water due to lowered solubility in the IL. The separation of these two phases was facilitated by a centrifuge at 3000 rpm. The amount of recovered water was used to calculate the yield, and the water was also characterized for contents of NaCl ions and residual ILs to verify directional solubilities. The NaCl ion concentration was measured using Perkin Elmer Optima 8000 ICP-OES and the IL content is measured using Waters TQD triple mass spectrometer coupled to an Acquity ultrahigh pressure liquid chromatography system.
# [5] = Directional solvent extraction (DSE) desalination cycle, moderate / seawater-salinity NaCl feed; conditions: seawater salinity feedwater (3.5 wt %, 14,000 ppm Na+)
# Description: as §1
# All Na^+ concentration measurements were performed using Perkin Elmer Optima 8000 ICP-OES. Since all water samples in the experiment were deionized water, it was rational to assume that the molar concentration of Na^+ was equal to that of NaCl. […] A set of calibration curves of conductivity versus Na^+ ion concentration was created prior to the measurements. […] Samples with different IL/water ratios are mixed in beaker with stirring speed of 300 rpm for 10 hours, and then a 3-hour sitting period was allowed to guarantee thermodynamic equilibrium of dissolution. Because the ILs tested have higher density than water, the solution in the top layer was extracted as the sample. […] The intensity of a certain ion acquired by the mass spectrometer proportionally reflected the concentration of this kind of ion in the water solution.
# The DS performance in a DSE desalination cycle was evaluated for the assembled ILs, which involved first exposure to water bearing 3.7-5.0 wt % of NaCl (11,000-15,000 ppm of Na^+) followed by thorough mixing at elevated temperatures of 45, 60 or 75° C. […] The amount of residual NaCl and IL in the recovered aqueous phase was then measured using atomic emission spectroscopy and liquid chromatography-mass spectrometry.
smiles,measurement,setting,value
CCCCCCCC[P+](CCCC)(CCCC)CCCC [[P4448][Tf2N]] [Tributyloctylphosphonium bis(trifluoromethanesulfonyl)imide],Viscosity in Pa · s,[1],0.433 Pa · s and 0.433 ± 0.099 Pa · s
"CCn1cc[n+](C)c1 [[emim][Tf2N], 1-Ethyl-3-methylimidazolium bis(trifluoromethylsulfonyl)imide]",IL concentration in the brine (MX),[2]; brine with 4% salinity,4 ppm
same,IL solubility in saturated NaCl solution,[2]; saturated NaCl solution,lower than 4 ppm
same,Viscosity in Pa · s,[1],0.033 ± 0.014 Pa · s
same,Solubility in H2O (ppm),[3],130-150 ppm
"CCCCCCCCCCCCCC[P+](CCCCCC)(CCCCCC)CCCCCC [[P66614][Tf2N], Trihexyltetradecylphosphonium bis(trifluoromethanesulfonyl)imide]",Viscosity in Pa · s,[1],0.081 ± 0.059 Pa · s
"CC(C)C[C@H](NS(=O)(=O)C(F)(F)F)C(=O)O.CCCCCCCC[P+](CCCC)(CCCC)CCCC [[P4448] I-Leu, Tributyloctylphosphonium trifluoromethanesulfonylleucine]",Viscosity in Pa · s,[1],1.017 ± 0.078 Pa · s
CCCCCCCC[P+](CCCC)(CCCC)CCCC [[P4448][Bzlm]] [Tributyloctylphosphonium benzo[d]imidazol-1-ide],Viscosity in Pa · s,[1],0.185 ± 0.092 Pa · s
"COC[n+]1ccn(C)c1 [[mommim][Tf2N], 1-(methoxymethyl)-3-methyl-1H-imidazol-3-ium bis(trifluoromethylsulfonyl)imide]",highest salt rejection rate obtained,[4]; NaCl 19.6 wt % hypersaline feed,95.8%
same,"Ion rejection, hypersaline","[4]; NaCl 19.6 wt %, Na+ 77,300 ppm feed, average of samples",89.5%
same,solubility in 4% NaCl solution,[2],about 26 ppm
same,Viscosity,[1],0.056 Pa · s
same,Solubility in H2O,[3],~270 ppm
same,"Ion rejection, seawater concentration",[5],95.2%
"CC[n+]1ccn(C)n1 [[1,2,3-emtriz][Tf2N], 1-ethyl-3-methyl-1,2,3-triazolium bistriflimide]",solubility in 4% NaCl solution,[2],about 41 ppm
same,Viscosity,[1],0.035 Pa · s
same,Solubility in H2O,[3],~390 ppm
same,"Ion rejection, seawater concentration",[5],92.5%
"CCCCn1cc[n+](C)c1 [[bmim][Tf2N], 1-Butyl-3-methylimidazolium bis(trifluoromethylsulfonyl)imide]",Viscosity in Pa · s,[1],0.056 ± 0.010 Pa · s
same,Solubility in H2O (ppm),[3],<90 ppm
